Measured values from ChEMBL document CHEMBL5727943, “Composition and methods for inhibiting mammalian sterile 20-like kinase 1” (2020).

Legend:
[1] = molecular target: T1, Serine/threonine-protein kinase 4 (Homo sapiens, UniProt Q13043); test: (§1) MST1/MST2 Biochemical LanthaScreen Eu Kinase Binding Assay: MST1 and MST2 biochemical LanthaScreen Eu Kinase Binding Assay was based on the binding and displacement of kinase tracer to the kinase of interest. Compounds in 1000×DMSO stock solution was dispensed using automated dispensing system (Labcyte) to 384 well Corning Microplate at 15 nL, 5 uL of Kinase buffer A was added to each well. Plates were shaken and incubated for 1 min to ensure well dissolution of compounds.
T1 sequence (Q13043 whole entry): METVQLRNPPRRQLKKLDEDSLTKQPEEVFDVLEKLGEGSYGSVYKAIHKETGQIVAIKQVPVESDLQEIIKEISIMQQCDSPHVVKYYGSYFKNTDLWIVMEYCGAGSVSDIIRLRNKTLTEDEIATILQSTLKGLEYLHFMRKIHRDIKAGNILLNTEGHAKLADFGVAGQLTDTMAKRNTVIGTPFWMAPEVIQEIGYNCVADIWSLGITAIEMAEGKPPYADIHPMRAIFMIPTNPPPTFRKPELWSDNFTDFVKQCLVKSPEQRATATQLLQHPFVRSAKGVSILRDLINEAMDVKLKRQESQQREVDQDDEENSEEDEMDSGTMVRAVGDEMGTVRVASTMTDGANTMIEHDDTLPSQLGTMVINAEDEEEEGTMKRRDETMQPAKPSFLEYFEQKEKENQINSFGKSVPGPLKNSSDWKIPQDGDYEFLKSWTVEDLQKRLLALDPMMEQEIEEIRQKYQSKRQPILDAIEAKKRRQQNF

[2] = molecular target: T2, Serine/threonine-protein kinase 3 (Homo sapiens, UniProt Q13188); test: as §1
T2 sequence (Q13188 whole entry): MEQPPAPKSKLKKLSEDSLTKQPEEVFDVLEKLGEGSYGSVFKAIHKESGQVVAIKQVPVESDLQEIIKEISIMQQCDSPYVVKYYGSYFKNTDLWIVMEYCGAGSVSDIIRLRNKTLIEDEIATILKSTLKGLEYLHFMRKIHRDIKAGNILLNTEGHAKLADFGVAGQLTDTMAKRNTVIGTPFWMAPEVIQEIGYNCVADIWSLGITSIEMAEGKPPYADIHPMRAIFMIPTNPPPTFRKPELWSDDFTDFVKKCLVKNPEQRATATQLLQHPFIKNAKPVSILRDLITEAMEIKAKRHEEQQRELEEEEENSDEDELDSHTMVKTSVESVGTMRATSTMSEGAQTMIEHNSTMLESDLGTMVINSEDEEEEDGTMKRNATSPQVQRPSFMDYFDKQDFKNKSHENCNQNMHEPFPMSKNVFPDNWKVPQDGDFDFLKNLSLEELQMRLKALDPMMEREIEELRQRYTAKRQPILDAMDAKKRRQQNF

CCOc1cc2ncc(C#N)c(Nc3ccc(OCc4ncccc4C)cc3Cl)c2cc1NC(=O)/C=C/CN(C)C
IC50 [1]: < 100 nM | IC50 [2]: < 100 nM
